From patent publication US20020137929A1, “1 - (3-heterocyclylphenyl) isothiourea, -isourea, -guanidine and -amidine herbicidal agents” (Intellectual Property Department, BASF Aktiengesellschaft, priority 1998, published 2002)

Key:
SETVI (Foxtail, Green) [1] = assay: Postemergence herbicidal evaluation; format: in vivo, Setaria viridis; conditions: for SETVI herbicidal rating: postemergence
In short: (§1)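 Rate range approx. 0.0156–0.500 kg/ha. Foliar application at 40 psi to ~2-week seedlings; surfactant 0.5% TWEEN 20 in 50/50 acetone/water. Evaluation 4–5 wk post-treatment by 0–9 visual injury score, means of replicate tests.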

SETVI (Foxtail, Green) [2] = assay: Preemergence herbicidal evaluation; format: in vivo, Setaria viridis; conditions: rated 4-5 weeks after treatment
In short: (§2)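 Herbicidal effect scored visually, 0-9, at 4 to 5 weeks against a control; compound applied preemergence by aqueous acetone spray to seeded soil at about 0.0156 to 0.500 kg/ha.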

[3] = test system: SAGPY (Arrowhead (Pygmaea)); assay: Postemergence weed control under flooded paddy conditions; format: in vivo, Sagittaria pygmaea; conditions: postemergence weeds, 3-4 weeks after treatment
In short: (§3)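 Flood-water application, about 0.0313–0.500 kg/ha a.i. in aqueous/acetone 50/50 v/v; water depth 1.5–3 cm throughout. Weeds 3–5 cm, rice 1.5–2.5 leaf. Greenhouse; 0–9 visual rating vs control at 3–4 wk.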

CYPIR (Rice Flatsedge) = assay: Preemergence weed control under flooded paddy conditions; format: in vivo, Cyperus iria; conditions: rated 3-4 weeks after treatment
In short: (§4)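 Visual injury scored 0-9 against control three to four weeks post-treatment, greenhouse-grown. Application: acetone/water (50/50) solutions dosed directly into flood water (1.5-3 cm over silt loam, planted top 0.5 cm), roughly 0.0313 to 0.500 kg/ha active ingredient.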

[4] = test system: TRZAWR (Wheat, Winter, cv Riband); assay: Postemergence herbicidal evaluation; format: in vivo, Triticum aestivum; conditions: for TRZAWR herbicidal rating: postemergence
In short: as §1

GALAP (Galium) = assay: Postemergence herbicidal evaluation; format: in vivo, Galium aparine; conditions: for GALAP herbicidal rating: postemergence
In short: as §1

[5] = test system: ECHORC (Watergrass (Calif.)); assay: Preemergence weed control under flooded paddy conditions; format: in vivo, Echinochloa oryzoides; conditions: rated 3-4 weeks after treatment
In short: as §4

ZEAMX (Corn, Field) = assay: Preemergence herbicidal evaluation; format: in vivo, Zea mays; conditions: rated 4-5 weeks after treatment
In short: as §2

ABUTH (Velvetleaf) = assay: Preemergence herbicidal evaluation; format: in vivo, Abutilon theophrasti; conditions: rated 4-5 weeks after treatment
In short: as §2

[6] = test system: IPOHE (Morningglory, Ivyleaf); assay: Preemergence herbicidal evaluation; format: in vivo, Ipomoea hederacea; conditions: rated 4-5 weeks after treatment
In short: as §2

[7] = test system: ECHORC (Watergrass (Calif.)); assay: Postemergence weed control under flooded paddy conditions; format: in vivo, Echinochloa oryzoides; conditions: postemergence weeds, 3-4 weeks after treatment
In short: as §3

ECHCG (Barnyardgrass) = assay: Preemergence herbicidal evaluation; format: in vivo, Echinochloa crus-galli; conditions: rated 4-5 weeks after treatment
In short: as §2

[8] = test system: IPOHE (Morningglory, Ivyleaf); assay: Postemergence herbicidal evaluation; format: in vivo, Ipomoea hederacea; conditions: for IPOHE herbicidal rating: postemergence
In short: as §1

MOOVA (Monochoria) = assay: Preemergence weed control under flooded paddy conditions; format: in vivo, Monochoria vaginalis; conditions: rated 3-4 weeks after treatment
In short: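 Values are visual 0-9 scores against a control for a preemergence application into paddy flood water at about 0.0313 to 0.500 kg/ha. Greenhouse duration was three to four weeks.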

CCOC(=O)CN1C(=O)C(CC(=O)OCc2ccccc2)OC1=Nc1cc(-n2c(=O)cc(C(F)(F)F)n(C)c2=O)c(F)cc1Cl (centres unmarked) [Compound 40, 2-{{2-Chloro-5-[3,6-dihydro-3-methyl-2,6-dioxo-4-(trifluoromethyl)-1(2H)-pyrimidinyl]-4-fluorophenyl}imino}-4-oxo-3,5-oxazolidinediacetic acid, 5-benzyl ethyl ester]
Postemergence herbicidal rating SETVI (SETVI (Foxtail, Green) [1]; Rate 0.0158 kg/ha): 1.0 | Postemergence herbicidal rating SETVI (SETVI (Foxtail, Green) [1]; Rate 0.0315 kg/ha): 7.0 | Postemergence herbicidal rating SETVI (SETVI (Foxtail, Green) [1]; Rate 0.0630 kg/ha): 9.0 | Preemergence herbicidal rating SETVI (SETVI (Foxtail, Green) [2]; rate 0.0313 kg/ha): 0.0 | Preemergence herbicidal rating SETVI (SETVI (Foxtail, Green) [2]; rate 0.0625 kg/ha): 0.0 | Preemergence herbicidal rating SETVI (SETVI (Foxtail, Green) [2]; rate 0.1250 kg/ha): 6.0 | Preemergence herbicidal rating SETVI (SETVI (Foxtail, Green) [2]; rate 0.2500 kg/ha): 6.0 | Herbicidal rating SAGPY ([3]; rate 0.0313 kg/ha): 0.0 | Herbicidal rating SAGPY ([3]; rate 0.0625 kg/ha): 0.0 | Herbicidal rating SAGPY ([3]; rate 0.1250 kg/ha): 0.0 | Herbicidal rating SAGPY ([3]; rate 0.2500 kg/ha): 0.0 | Herbicidal rating CYPIR (CYPIR (Rice Flatsedge); 0.0313 kg/ha): 0.0 | Herbicidal rating CYPIR (CYPIR (Rice Flatsedge); 0.0625 kg/ha): 0.0 | Herbicidal rating CYPIR (CYPIR (Rice Flatsedge); 0.1250 kg/ha): 0.0 | Herbicidal rating CYPIR (CYPIR (Rice Flatsedge); 0.2500 kg/ha): 0.0 | Postemergence herbicidal rating TRZAWR ([4]; Rate 0.0158 kg/ha): 4.0 | Postemergence herbicidal rating TRZAWR ([4]; Rate 0.0315 kg/ha): 4.0 | Postemergence herbicidal rating TRZAWR ([4]; Rate 0.0630 kg/ha): 4.5 | Postemergence herbicidal rating GALAP (GALAP (Galium); Rate 0.0158 kg/ha): 1.0 | Postemergence herbicidal rating GALAP (GALAP (Galium); Rate 0.0315 kg/ha): 2.0 | Postemergence herbicidal rating GALAP (GALAP (Galium); Rate 0.0630 kg/ha): 4.0 | Herbicidal rating ECHORC ([5]; 0.0313 kg/ha): 5.0 | Herbicidal rating ECHORC ([5]; 0.0625 kg/ha): 5.0 | Herbicidal rating ECHORC ([5]; 0.1250 kg/ha): 5.0 | Herbicidal rating ECHORC ([5]; 0.2500 kg/ha): 9.0 | Preemergence herbicidal rating ZEAMX (ZEAMX (Corn, Field); rate 0.0313 kg/ha): 0.0 | Preemergence herbicidal rating ZEAMX (ZEAMX (Corn, Field); rate 0.0625 kg/ha): 0.0 | Preemergence herbicidal rating ZEAMX (ZEAMX (Corn, Field); rate 0.1250 kg/ha): 0.0 | Preemergence herbicidal rating ZEAMX (ZEAMX (Corn, Field); rate 0.2500 kg/ha): 1.0 | Preemergence herbicidal rating ABUTH (ABUTH (Velvetleaf); rate 0.0313 kg/ha): 0.0 | Preemergence herbicidal rating ABUTH (ABUTH (Velvetleaf); rate 0.0625 kg/ha): 6.0 | Preemergence herbicidal rating ABUTH (ABUTH (Velvetleaf); rate 0.1250 kg/ha): 9.0 | Preemergence herbicidal rating ABUTH (ABUTH (Velvetleaf); rate 0.2500 kg/ha): 9.0 | Preemergence herbicidal rating IPOHE ([6]; rate 0.0313 kg/ha): 0.0 | Preemergence herbicidal rating IPOHE ([6]; rate 0.0625 kg/ha): 0.0 | Preemergence herbicidal rating IPOHE ([6]; rate 0.1250 kg/ha): 9.0 | Preemergence herbicidal rating IPOHE ([6]; rate 0.2500 kg/ha): 9.0 | Herbicidal rating ECHORC ([7]; rate 0.0313 kg/ha): 5.0 | Herbicidal rating ECHORC ([7]; rate 0.0625 kg/ha): 5.0 | Herbicidal rating ECHORC ([7]; rate 0.1250 kg/ha): 5.0 | Herbicidal rating ECHORC ([7]; rate 0.2500 kg/ha): 9.0 | Preemergence herbicidal rating ECHCG (ECHCG (Barnyardgrass); rate 0.0313 kg/ha): 0.0 | Preemergence herbicidal rating ECHCG (ECHCG (Barnyardgrass); rate 0.0625 kg/ha): 0.0 | Preemergence herbicidal rating ECHCG (ECHCG (Barnyardgrass); rate 0.1250 kg/ha): 1.0 | Preemergence herbicidal rating ECHCG (ECHCG (Barnyardgrass); rate 0.2500 kg/ha): 1.0 | Postemergence herbicidal rating IPOHE ([8]; Rate 0.0158 kg/ha): 9.0 | Postemergence herbicidal rating IPOHE ([8]; Rate 0.0315 kg/ha): 9.0 | Postemergence herbicidal rating IPOHE ([8]; Rate 0.0630 kg/ha): 9.0 | Herbicidal rating MOOVA (MOOVA (Monochoria); 0.0313 kg/ha): 9.0 | Herbicidal rating MOOVA (MOOVA (Monochoria); 0.0625 kg/ha): 9.0 | Herbicidal rating MOOVA (MOOVA (Monochoria); 0.1250 kg/ha): 9.0 | Herbicidal rating MOOVA (MOOVA (Monochoria); 0.2500 kg/ha): 9.0

CCOC(=O)CN1C(=O)C(C)SC1=Nc1cc(-n2c(=O)cc(C(F)(F)F)n(C)c2=O)c(F)cc1Cl (centres unmarked) [Compound 12]
SETVI herbicidal rating (SETVI (Foxtail, Green) [1]; rate 0.0156 kg/ha): 0.0 | SETVI herbicidal rating (SETVI (Foxtail, Green) [1]; rate 0.0313 kg/ha): 4.0 | SETVI herbicidal rating (SETVI (Foxtail, Green) [1]; rate 0.0625 kg/ha): 9.0 | SETVI herbicidal rating (SETVI (Foxtail, Green) [1]; rate 0.1250 kg/ha): 9.0 | SETVI preemergence herbicidal rating (SETVI (Foxtail, Green) [2]; rate 0.0156 kg/ha): 8.5 | SETVI preemergence herbicidal rating (SETVI (Foxtail, Green) [2]; rate 0.0313 kg/ha): 9.0 | SETVI preemergence herbicidal rating (SETVI (Foxtail, Green) [2]; rate 0.0625 kg/ha): 9.0 | SETVI preemergence herbicidal rating (SETVI (Foxtail, Green) [2]; rate 0.1250 kg/ha): 9.0 | SETVI preemergence herbicidal rating (SETVI (Foxtail, Green) [2]; rate 0.2500 kg/ha): 9.0 | Herbicidal rating SAGPY ([3]; rate 0.0313 kg/ha): 0.0 | Herbicidal rating SAGPY ([3]; rate 0.0625 kg/ha): 1.0 | Herbicidal rating SAGPY ([3]; rate 0.1250 kg/ha): 4.0 | Herbicidal rating SAGPY ([3]; rate 0.2500 kg/ha): 0.0 | Herbicidal rating CYPIR (CYPIR (Rice Flatsedge); 0.0313 kg/ha): 0.0 | Herbicidal rating CYPIR (CYPIR (Rice Flatsedge); 0.0625 kg/ha): 0.0 | Herbicidal rating CYPIR (CYPIR (Rice Flatsedge); 0.1250 kg/ha): 1.0 | Herbicidal rating CYPIR (CYPIR (Rice Flatsedge); 0.2500 kg/ha): 0.0 | TRZAWR herbicidal rating ([4]; rate 0.0156 kg/ha): 5.5 | TRZAWR herbicidal rating ([4]; rate 0.0313 kg/ha): 7.0 | TRZAWR herbicidal rating ([4]; rate 0.0625 kg/ha): 7.5 | TRZAWR herbicidal rating ([4]; rate 0.1250 kg/ha): 7.5 | GALAP herbicidal rating (GALAP (Galium); rate 0.0156 kg/ha): 3.0 | GALAP herbicidal rating (GALAP (Galium); rate 0.0313 kg/ha): 5.0 | GALAP herbicidal rating (GALAP (Galium); rate 0.0625 kg/ha): 7.0 | GALAP herbicidal rating (GALAP (Galium); rate 0.1250 kg/ha): 8.0 | Herbicidal rating ECHORC ([5]; 0.0313 kg/ha): 5.0 | Herbicidal rating ECHORC ([5]; 0.0625 kg/ha): 9.0 | Herbicidal rating ECHORC ([5]; 0.1250 kg/ha): 8.5 | Herbicidal rating ECHORC ([5]; 0.2500 kg/ha): 9.0 | ZEAMX preemergence herbicidal rating (ZEAMX (Corn, Field); rate 0.0156 kg/ha): 4.0 | ZEAMX preemergence herbicidal rating (ZEAMX (Corn, Field); rate 0.0313 kg/ha): 5.0 | ZEAMX preemergence herbicidal rating (ZEAMX (Corn, Field); rate 0.0625 kg/ha): 5.5 | ZEAMX preemergence herbicidal rating (ZEAMX (Corn, Field); rate 0.1250 kg/ha): 6.5 | ZEAMX preemergence herbicidal rating (ZEAMX (Corn, Field); rate 0.2500 kg/ha): 8.5 | ABUTH preemergence herbicidal rating (ABUTH (Velvetleaf); rate 0.0156 kg/ha): 7.5 | ABUTH preemergence herbicidal rating (ABUTH (Velvetleaf); rate 0.0313 kg/ha): 9.0 | ABUTH preemergence herbicidal rating (ABUTH (Velvetleaf); rate 0.0625 kg/ha): 9.0 | ABUTH preemergence herbicidal rating (ABUTH (Velvetleaf); rate 0.1250 kg/ha): 9.0 | ABUTH preemergence herbicidal rating (ABUTH (Velvetleaf); rate 0.2500 kg/ha): 9.0 | IPOHE preemergence herbicidal rating ([6]; rate 0.0156 kg/ha): 4.5 | IPOHE preemergence herbicidal rating ([6]; rate 0.0313 kg/ha): 9.0 | IPOHE preemergence herbicidal rating ([6]; rate 0.0625 kg/ha): 9.0 | IPOHE preemergence herbicidal rating ([6]; rate 0.1250 kg/ha): 9.0 | IPOHE preemergence herbicidal rating ([6]; rate 0.2500 kg/ha): 9.0 | Herbicidal rating ECHORC ([7]; rate 0.0313 kg/ha): 5.0 | Herbicidal rating ECHORC ([7]; rate 0.0625 kg/ha): 9.0 | Herbicidal rating ECHORC ([7]; rate 0.1250 kg/ha): 8.5 | Herbicidal rating ECHORC ([7]; rate 0.2500 kg/ha): 9.0 | ECHCG preemergence herbicidal rating (ECHCG (Barnyardgrass); rate 0.0156 kg/ha): 2.0 | ECHCG preemergence herbicidal rating (ECHCG (Barnyardgrass); rate 0.0313 kg/ha): 5.0 | ECHCG preemergence herbicidal rating (ECHCG (Barnyardgrass); rate 0.0625 kg/ha): 6.0 | ECHCG preemergence herbicidal rating (ECHCG (Barnyardgrass); rate 0.1250 kg/ha): 9.0 | ECHCG preemergence herbicidal rating (ECHCG (Barnyardgrass); rate 0.2500 kg/ha): 9.0 | IPOHE herbicidal rating ([8]; rate 0.0156 kg/ha): 9.0 | IPOHE herbicidal rating ([8]; rate 0.0313 kg/ha): 9.0 | IPOHE herbicidal rating ([8]; rate 0.0625 kg/ha): 9.0 | IPOHE herbicidal rating ([8]; rate 0.1250 kg/ha): 9.0 | Herbicidal rating MOOVA (MOOVA (Monochoria); 0.0313 kg/ha): 9.0 | Herbicidal rating MOOVA (MOOVA (Monochoria); 0.0625 kg/ha): 9.0 | Herbicidal rating MOOVA (MOOVA (Monochoria); 0.1250 kg/ha): 9.0 | Herbicidal rating MOOVA (MOOVA (Monochoria); 0.2500 kg/ha): 9.0
